Values of other authors in patent publication US20250051276A1 (priority 2021, published 2025).

Experiments:
[1] = tested on: 5HT2A sensor; conditions: cited from earlier work
[2] = tested on: mice; conditions: hallucinogenic potential; cited from earlier work
[3] = tested on: 5HT2A sensor; conditions: cited from earlier work; remark: listed apart in the source

Row | SMILES | activation of the 5HT2A sensor assay in agonist mode [1] | head-twitch response (HTR) [2] | competition with 5-HT in the 5HT2A sensor assay in antagonist mode [3]
1 | COc1ccc2[nH]cc(CCN(C)C)c2c1 [Compound 5-MeO-DMT, 5-MeO-DMT] | activate the 5HT2A sensor assay in agonist mode | produces a robust, dose-dependent head-twitch response | –
2 | COc1ccc2c(CCN(C)C)c[nH]c2c1 [Compound 6-MeO-DMT, 6-MeO-DMT] | do not activate the 5HT2A sensor assay in agonist mode | does not produce a HTR | compete off 5-HT
3 | O=C(c1ccc(F)cc1)C1CCN(CCn2c(=O)[nH]c3ccccc3c2=O)CC1 [Ketanserin] | do not activate the 5HT2A sensor assay in agonist mode | – | can compete with 5HT binding to 5HT2A
